Experimental data reported in US20260184710A1, “CASITAS B-LINEAGE LYMPHOMA PROTOONCOGENE B (CBL-B) DEGRADING COMPOUNDS AND ASSOCIATED METHODS OF USE” (Arvinas Operations, Inc., priority 2022, published 2026).

Target: T1, Cbl-b (Homo sapiens, UniProt Q13191)
T1 construct: Cbl-b-HiBit KI Jurkat Cells were purchased from Promega; host or cells: Cbl-b-HiBiT knock-in Jurkat cells
Test: Cbl-b Degradation Method B (Nano-Glo HiBiT lytic detection)
Type: cell-based
Details: Cbl-b-HiBit KI Jurkat Cells, incubated at least 6-24 hours; for DC50: half maximal degradation, read-out: Cbl-b Degredation Method B IC50; for Dmax: maximum degradation observed, read-out: Cbl-b Degredation Method B Dmax (%)
Summary of the method: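 An 11-point, 3-fold compound dilution was applied for 6-24 hours to Jurkat cells carrying HiBiT-tagged endogenous Cbl-b. Lytic HiBiT luminescence quantified residual protein. Outputs are DC50 and Dmax relative to DMSO control.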

T1 sequence (Q13191 whole entry): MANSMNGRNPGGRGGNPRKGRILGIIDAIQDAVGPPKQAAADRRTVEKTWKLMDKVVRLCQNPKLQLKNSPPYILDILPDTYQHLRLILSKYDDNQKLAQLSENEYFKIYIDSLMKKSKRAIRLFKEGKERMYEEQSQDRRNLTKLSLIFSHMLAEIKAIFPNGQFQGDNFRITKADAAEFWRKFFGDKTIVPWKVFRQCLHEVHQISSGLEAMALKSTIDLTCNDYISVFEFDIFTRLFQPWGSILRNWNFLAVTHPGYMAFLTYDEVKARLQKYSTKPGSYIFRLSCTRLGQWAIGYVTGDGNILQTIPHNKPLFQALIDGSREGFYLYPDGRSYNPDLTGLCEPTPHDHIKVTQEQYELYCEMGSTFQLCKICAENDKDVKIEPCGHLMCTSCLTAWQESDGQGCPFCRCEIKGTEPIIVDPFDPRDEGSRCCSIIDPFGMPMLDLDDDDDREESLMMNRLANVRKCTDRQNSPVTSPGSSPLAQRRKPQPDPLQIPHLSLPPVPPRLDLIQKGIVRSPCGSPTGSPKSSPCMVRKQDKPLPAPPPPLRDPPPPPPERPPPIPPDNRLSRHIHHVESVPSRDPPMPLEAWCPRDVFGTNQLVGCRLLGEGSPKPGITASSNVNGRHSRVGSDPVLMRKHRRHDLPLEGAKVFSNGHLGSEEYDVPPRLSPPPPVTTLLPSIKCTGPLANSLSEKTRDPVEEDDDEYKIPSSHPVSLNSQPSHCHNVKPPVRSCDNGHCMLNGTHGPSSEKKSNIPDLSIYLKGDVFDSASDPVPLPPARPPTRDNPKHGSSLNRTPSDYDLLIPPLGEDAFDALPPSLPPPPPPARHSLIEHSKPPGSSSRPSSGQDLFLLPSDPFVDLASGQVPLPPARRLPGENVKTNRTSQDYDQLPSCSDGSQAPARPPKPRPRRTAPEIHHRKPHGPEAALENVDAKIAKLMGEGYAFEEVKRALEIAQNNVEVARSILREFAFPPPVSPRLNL

| SMILES | DC50 [nM] | Dmax [%] |
| --- | --- | --- |
| CC(C)n1c(=O)n(C2CCC(=O)NC2=O)c2ccc(N3CCC(O[C@H]4CC[C@H](CN5CCN(Cc6cc7c(c(C(F)(F)F)c6)CN(c6cccc([C@]8(Cc9nncn9C)C[C@@H](C#N)C8)c6)C7=O)C(C)(C)C5)CC4)CC3)cc21 (some centres unmarked) [Example 229, (1r,3r)-3-(3-{6-[(2,2-dimethyl-4-{[(1r,4r)-4-({1-[1-(2,6-dioxopiperidin-3-yl)-2-oxo-3-(propan-2-yl)-2,3-dihydro-1H-1,3-benzodiazol-5-yl]piperidin-4-yl}oxy)cyclohexyl]methyl}piperazin-1-yl)methyl]-1-oxo-4-(trifluoromethyl)-2,3-dihydro-1H-isoindol-2-yl}phenyl)-3-[(4-methyl-4H-1,2,4-triazol-3-yl)methyl]cyclobutane-1-carbonitrile] | < 5 | > 70 |
| C[C@H]1CN(CC2CCC(OC3CCN(c4ccc5c(c4F)CN(C4CCC(=O)NC4=O)C5=O)CC3)CC2)[C@@H](C)CN1Cc1cc2c(c(C(F)(F)F)c1)CN(c1cccc(C3(Cc4nncn4C)COC3)c1)C2=O (stereo partly drawn) [Example 242, 3-[4-fluoro-1-oxo-5-(4-{[(1rs,4rs)-4-{[(2S,5S)-2,5-dimethyl-4-{[2-(3-{3-[(4-methyl-4H-1,2,4-triazol-3-yl)methyl]oxetan-3-yl}phenyl)-3-oxo-7-(trifluoromethyl)-2,3-dihydro-1H-isoindol-5-yl]methyl}piperazin-1-yl]methyl}cyclohexyl]oxy}piperidin-1-yl)-2,3-dihydro-1H-isoindol-2-yl]piperidine-2,6-dione] | < 5 | > 70 |
| CC1c2nc(N3CCC(OC4CCC(CN5[C@H](C)CN(Cc6cc7c(c(C(F)(F)F)c6)CN(c6cccc(C8(Cc9nncn9C)COC8)c6)C7=O)C[C@@H]5C)CC4)CC3)ccc2C(=O)N1C1CCC(=O)NC1=O (stereo partly drawn) [Example 243, 3-[7-methyl-5-oxo-2-(4-{[(1rs,4rs)-4-{[(2R,6S)-2,6-dimethyl-4-{[2-(3-{3-[(4-methyl-4H-1,2,4-triazol-3-yl)methyl]oxetan-3-yl}phenyl)-3-oxo-7-(trifluoromethyl)-2,3-dihydro-1H-isoindol-5-yl]methyl}piperazin-1-yl]methyl}cyclohexyl]oxy}piperidin-1-yl)-5H,6H,7H-pyrrolo[3,4-b]pyridin-6-yl]piperidine-2,6-dione] | < 5 | > 70 |
| C[C@@H]1CN(Cc2cc3c(c(C(F)(F)F)c2)CN(c2cccc(C4(Cc5nncn5C)COC4)c2)C3=O)CCN1C[C@H]1CC[C@H](OC2CCN(c3ccc4c(c3F)CN(C3CCC(=O)NC3=O)C4=O)CC2)CC1 (stereo partly drawn) [Example 244, 3-[4-fluoro-1-oxo-5-(4-{[(1r*,4r*)-4-{[(2R)-2-methyl-4-{[2-(3-{3-[(4-methyl-4H-1,2,4-triazol-3-yl)methyl]oxetan-3-yl}phenyl)-3-oxo-7-(trifluoromethyl)-2,3-dihydro-1H-isoindol-5-yl]methyl}piperazin-1-yl]methyl}cyclohexyl]oxy}piperidin-1-yl)-2,3-dihydro-1H-isoindol-2-yl]piperidine-2,6-dione] | < 5 | > 70 |
| CC1CN(C[C@H]2CC[C@H](OC3CCN(c4ccc5c(c4)n(C(C)C)c(=O)n5C4CCC(=O)NC4=O)CC3)CC2)CCN1Cc1cc2c(c(C(F)(F)F)c1)CN(c1cccc(C3(Cc4nncn4C)CC(C#N)C3)c1)C2=O (some centres unmarked) [Example 245, (1r**,3r**)-3-(3-{6-[(2-methyl-4-{[(1r*,4r*)-4-({1-[1-(2,6-dioxopiperidin-3-yl)-2-oxo-3-(propan-2-yl)-2,3-dihydro-1H-1,3-benzodiazol-5-yl]piperidin-4-yl}oxy)cyclohexyl]methyl}piperazin-1-yl)methyl]-1-oxo-4-(trifluoromethyl)-2,3-dihydro-1H-isoindol-2-yl}phenyl)-3-[(4-methyl-4H-1,2,4-triazol-3-yl)methyl]cyclobutane-1-carbonitrile] | < 5 | > 70 |
| CC1c2nc(N3CCC(O[C@H]4CC[C@@H](CN5[C@@H](C)CN(Cc6cc7c(c(C(F)(F)F)c6)CN(c6cccc(C8(Cc9nncn9C)COC8)c6)C7=O)C[C@@H]5C)CC4)CC3)ccc2C(=O)N1C1CCC(=O)NC1=O (stereo partly drawn) [Example 249, 3-[7-methyl-5-oxo-2-(4-{[(1r*,4r*)-4-{[(2S,6S)-2,6-dimethyl-4-{[2-(3-{3-[(4-methyl-4H-1,2,4-triazol-3-yl)methyl]oxetan-3-yl}phenyl)-3-oxo-7-(trifluoromethyl)-2,3-dihydro-1H-isoindol-5-yl]methyl}piperazin-1-yl]methyl}cyclohexyl]oxy}piperidin-1-yl)-5H,6H,7H-pyrrolo[3,4-b]pyridin-6-yl]piperidine-2,6-dione] | < 5 | > 70 |
| CC1c2nc(N3CCC(O[C@H]4CC[C@H](CN5[C@H](C)CN(Cc6cc7c(c(C(F)(F)F)c6)CN(c6cccc(C8(Cc9nncn9C)COC8)c6)C7=O)C[C@H]5C)CC4)CC3)ccc2C(=O)N1C1CCC(=O)NC1=O (stereo partly drawn) [Example 250, 3-[7-methyl-5-oxo-2-(4-{[(1r*,4r*)-4-{[(2R,6R)-2,6-dimethyl-4-{[2-(3-{3-[(4-methyl-4H-1,2,4-triazol-3-yl)methyl]oxetan-3-yl}phenyl)-3-oxo-7-(trifluoromethyl)-2,3-dihydro-1H-isoindol-5-yl]methyl}piperazin-1-yl]methyl}cyclohexyl]oxy}piperidin-1-yl)-5H,6H,7H-pyrrolo[3,4-b]pyridin-6-yl]piperidine-2,6-dione] | < 5 | 35 to 70 |
| Cc1cc(N2CCC(O[C@H]3CC[C@H](CN4CCN(Cc5cc6c(c(C(F)(F)F)c5)CN(c5cccc(C7(Cc8nncn8C)CC(C#N)C7)c5)C6=O)C(C)(C)C4)CC3)CC2)c(F)c2c1C(=O)N(C1CCC(=O)NC1=O)C2 (some centres unmarked) [Example 251, (1r**,3r**)-3-(3-{6-[(2,2-dimethyl-4-{[(1r*,4r*)-4-({1-[2-(2,6-dioxopiperidin-3-yl)-4-fluoro-7-methyl-1-oxo-2,3-dihydro-1H-isoindol-5-yl]piperidin-4-yl}oxy)cyclohexyl]methyl}piperazin-1-yl)methyl]-1-oxo-4-(trifluoromethyl)-2,3-dihydro-1H-isoindol-2-yl}phenyl)-3-[(4-methyl-4H-1,2,4-triazol-3-yl)methyl]cyclobutane-1-carbonitrile] | 5 to 50 | > 70 |
| CC1c2nc(N3CCC(O[C@H]4CC[C@H](CN5CCN(Cc6cc(C(F)(F)F)c7cn(-c8cccc(C9(Cc%10nncn%10C)CC(C#N)C9)c8)nc7c6)C(C)(C)C5)CC4)CC3)ccc2C(=O)N1C1CCC(=O)NC1=O (some centres unmarked) [Example 252, (1r**,3r**)-3-(3-{6-[(2,2-dimethyl-4-{[(1r*,4r*)-4-({1-[6-(2,6-dioxopiperidin-3-yl)-7-methyl-5-oxo-5H,6H,7H-pyrrolo[3,4-b]pyridin-2-yl]piperidin-4-yl}oxy)cyclohexyl]methyl}piperazin-1-yl)methyl]-4-(trifluoromethyl)-2H-indazol-2-yl}phenyl)-3-[(4-methyl-4H-1,2,4-triazol-3-yl)methyl]cyclobutane-1-carbonitrile] | 5 to 50 | 35 to 70 |
| Cn1cnnc1CC1(c2cccc(N3Cc4c(cc(CN5CCN(C[C@H]6CC[C@H](OC7CCN(c8ccc9c(c8F)CN(C8CCC(=O)NC8=O)C9=O)CC7)CC6)CC5(C)C)cc4C(F)(F)F)C3=O)c2)CC(C#N)C1 (some centres unmarked) [Example 254, (1r**,3r**)-3-(3-{6-[(2,2-dimethyl-4-{[(1r*,4r*)-4-({1-[2-(2,6-dioxopiperidin-3-yl)-4-fluoro-1-oxo-2,3-dihydro-1H-isoindol-5-yl]piperidin-4-yl}oxy)cyclohexyl]methyl}piperazin-1-yl)methyl]-1-oxo-4-(trifluoromethyl)-2,3-dihydro-1H-isoindol-2-yl}phenyl)-3-[(4-methyl-4H-1,2,4-triazol-3-yl)methyl]cyclobutane-1-carbonitrile] | 5 to 50 | > 70 |
| Cn1cnnc1CC1(c2cccc(-n3cc4c(C(F)(F)F)cc(CN5CCC[C@H](CN6CCC(CN7CCN(c8ccc9c(c8F)CN(C8CCC(=O)NC8=O)C9=O)CC7)CC6)C5)cc4n3)c2)COC1 (stereo partly drawn) [Example 256, 3-(4-fluoro-5-{4-[(1-{[(3R)-1-{[2-(3-{3-[(4-methyl-4H-1,2,4-triazol-3-yl)methyl]oxetan-3-yl}phenyl)-4-(trifluoromethyl)-2H-indazol-6-yl]methyl}piperidin-3-yl]methyl}piperidin-4-yl)methyl]piperazin-1-yl}-1-oxo-2,3-dihydro-1H-isoindol-2-yl)piperidine-2,6-dione] | > 500 |  |
| Cn1cnnc1CC1(c2cccc(-n3cc4c(C(F)(F)F)cc(CN5CCC[C@H](CN6CCC[C@@H](CN7CCN(c8ccc9c(c8F)CN(C8CCC(=O)NC8=O)C9=O)CC7)C6)C5)cc4n3)c2)COC1 (stereo partly drawn) [Example 257, 3-[4-fluoro-5-(4-{[(3R)-1-{[(3R)-1-{[2-(3-{3-[(4-methyl-4H-1,2,4-triazol-3-yl)methyl]oxetan-3-yl}phenyl)-4-(trifluoromethyl)-2H-indazol-6-yl]methyl}piperidin-3-yl]methyl}piperidin-3-yl]methyl}piperazin-1-yl)-1-oxo-2,3-dihydro-1H-isoindol-2-yl]piperidine-2,6-dione] | > 500 |  |
| Cn1cnnc1CC1(c2cccc(-n3cc4c(C(F)(F)F)cc(CN5CCC[C@H](CN6CCC[C@H](OC7CCN(c8ccc9c(c8F)CN(C8CCC(=O)NC8=O)C9=O)CC7)C6)C5)cc4n3)c2)COC1 (stereo partly drawn) [Example 258, 3-[4-fluoro-5-(4-{[(3S)-1-{[(3S)-1-{[2-(3-{3-[(4-methyl-4H-1,2,4-triazol-3-yl)methyl]oxetan-3-yl}phenyl)-4-(trifluoromethyl)-2H-indazol-6-yl]methyl}piperidin-3-yl]methyl}piperidin-3-yl]oxy}piperidin-1-yl)-1-oxo-2,3-dihydro-1H-isoindol-2-yl]piperidine-2,6-dione] | > 500 |  |
